PMC5853558, “De novo identification of lipid II binding lipopeptides with antibacterial activity against vancomycin-resistant bacteria” (Chemical Science, 2017)
≈ marks a conversion by molar mass, not a printed value. *1 amine or outer side, *2 acyl side, *3 side chain or, on linkers, in order; H or OH if unused. Where a SMILES comes first, the peptide text is derived from it. Bridges are numbered along the chain shown (N, C = ends). [ ]: non-standard residue; d: D form. The star is where a group is joined. TBMB = c1c(C[*:1])cc(C[*:3])cc1C[*:2]; NHDecyl = CCCCCCCCCCN*; NHOctyl = CCCCCCCCN*; NHHex = CCCCCCN*

Columns and labels:
Experiment in all cases: microbe, parasite or virus in culture
M. luteus (NCTC2665) = format: cell-based, Micrococcus luteus; conditions: for MIC of Ala scan of P8-D against M. luteus: Supplemental table S8, non-lipidated P8 variants, highest tested 512 µg/ml
Experimental: (§1) Section 4 Biological and biochemical experiments
(§2) 4.1 Minimum inhibitory concentration assay
(§3) MIC values were determined by using the broth microdilution method. Peptides were dissolved first in DMSO and diluted with broth so that the final peptide concentration was 1024 µg/ml and the DMSO concentration was 4%. Peptide serial dilutions were made in TSB in a polypropylene 96-wells plate using 50 µl volumes. An overnight culture of the organism of interest was diluted to and OD600 of 0.01 and grown until they reach 0.5. The culture was then diluted to 1 x 10^6 CFU/ml and 50 µl of this suspension was added to each well. The highest concentrations were then 512 µg/ml peptide and 2% DMSO. The plates were incubated at the preferred growth temperature of the organism that was used and 250 rpm. […] When […]
(§4) determining the MICs of the lipidated peptides, the lipopeptides were first dissolved in DMSO and diluted with TSB so that the peptide concentration was 128 µg/ml and the DMSO concentration was 4%. After inoculation the highest peptide concentration evaluated was 64 µg/ml and the DMSO concentration was 2%. A DMSO control was tested for each strain to ensure the DMSO did not affect the growth of the particular strain. […]

E. faecium (VRE155) = format: cell-based, Enterococcus faecium; conditions: Supplemental table S7, P8 with varying lipids; broth microdilution
Experimental: as §1, §2, §3, §4

B. subtilis (168) = format: cell-based; conditions: Supplemental table S6, lipidated phage display hits; n.a. = not active, highest tested conc 64 µg/ml
Experimental: as §1, §2, §3, §4

[1] = Supplemental table S7, P8 with varying lipids, broth microdilution
[2] = Supplemental table S6, lipidated phage display hits, n.a. = not active, highest tested conc 64 µg/ml

Question: Which “MIC M. luteus” value (M. luteus (NCTC2665); [1]) does the source give for `CCCCCCNC(=O)CNC(=O)[C@H]1CSCc2cc3cc(c2)CSC[C@@H](NC(=O)[C@@H](CC(C)C)NC(=O)[C@@H](CC(C)C)NC(=O)[C@@H](CO)NC(=O)[C@@H](CCC(N)=O)NC(=O)[C@@H](CC(C)C)NC(=O)[C@@H](CC(C)C)NC(=O)[C@H](NC(=O)[C@@H](C)N)CSC3)C(=O)N2CCC[C@@H]2C(=O)N[C@H](Cc2ccc(O)cc2)C(=O)N[C@H](CO)C(=O)N[C@H]([C@H](C)O)C(=O)N[C@H](Cc2c[nH]cn2)C(=O)N[C@H](CCCNC(=N)N)C(=O)N1` [Peptide P8-D-C6] (H-[dA][dC][dL][dL][dQ][dS][dL][dL][dC][dP][dY][dS][dT][dH][dR][dC]G-NHHex; linker 2-9-16 via TBMB; N-terminus assumed) here?
Answer: Its value is 32 µg/mL (≈ 15.5 µM).

Question: What about the “MIC VRE E155” value (E. faecium (VRE155)) of the same compound?
Answer: Its value is 16 to 32 µg/mL.

Question: With `CCCCCCCCNC(=O)CNC(=O)[C@H]1CSCc2cc3cc(c2)CSC[C@@H](NC(=O)[C@@H](CC(C)C)NC(=O)[C@@H](CC(C)C)NC(=O)[C@@H](CO)NC(=O)[C@@H](CCC(N)=O)NC(=O)[C@@H](CC(C)C)NC(=O)[C@@H](CC(C)C)NC(=O)[C@H](NC(=O)[C@@H](C)N)CSC3)C(=O)N2CCC[C@@H]2C(=O)N[C@H](Cc2ccc(O)cc2)C(=O)N[C@H](CO)C(=O)N[C@H]([C@H](C)O)C(=O)N[C@H](Cc2c[nH]cn2)C(=O)N[C@H](CCCNC(=N)N)C(=O)N1` [Peptide P8-D-C8] (H-[dA][dC][dL][dL][dQ][dS][dL][dL][dC][dP][dY][dS][dT][dH][dR][dC]G-NHOctyl; linker 2-9-16 via TBMB; N-terminus assumed) as the compound, how does the “MIC M. luteus” value (M. luteus (NCTC2665); [1]) read?
Answer: Its value is 16 µg/mL (≈ 7.65 µM).

Question: And the “MIC VRE E155” value (E. faecium (VRE155))?
Answer: Its value is 8 to 16 µg/mL.

Question: For `CCCCCCCCCCNC(=O)CNC(=O)[C@@H]1CSCc2cc3cc(c2)CSC[C@H](NC(=O)[C@H](Cc2ccc(O)cc2)NC(=O)[C@H](Cc2c[nH]c4ccccc24)NC(=O)[C@H](CC(=O)O)NC(=O)[C@H](C(C)C)NC(=O)[C@@H]2CCCN2C(=O)[C@H](Cc2ccc(O)cc2)NC(=O)[C@@H](NC(=O)[C@H](C)N)CSC3)C(=O)N[C@@H](CC(C)C)C(=O)N[C@@H](Cc2ccccc2)C(=O)N[C@@H](CCC(N)=O)C(=O)N[C@@H]([C@@H](C)O)C(=O)N[C@@H](C(C)C)C(=O)N[C@@H](CC(=O)O)C(=O)N1` [Peptide P6-C10] (H-ACYPVDWYCLFQTVDCG-NHDecyl; linker 2-9-16 via TBMB; N-terminus assumed), which “MIC M. luteus” value (M. luteus (NCTC2665); [2]) is on record?
Answer: The value was 2 µg/mL (≈ 0.894 µM).

Question: For `CC(C)C[C@H]1NC(=O)[C@@H](C)NC(=O)[C@@H](CCC(N)=O)NC(=O)[C@@H](CC(C)C)NC(=O)[C@@H](CC(C)C)NC(=O)[C@H](NC(=O)[C@@H](C)N)CSCc2cc3cc(c2)CSC[C@@H](NC(=O)[C@@H](CC(C)C)NC1=O)C(=O)N1CCC[C@@H]1C(=O)N[C@H](Cc1ccc(O)cc1)C(=O)N[C@H](CO)C(=O)N[C@H]([C@H](C)O)C(=O)N[C@H](Cc1c[nH]cn1)C(=O)N[C@H](CCCNC(=N)N)C(=O)N[C@@H](C(=O)NCC(N)=O)CSC3` [Peptide P8-D-S6A] (H-[dA][dC][dL][dL][dQ][dA][dL][dL][dC][dP][dY][dS][dT][dH][dR][dC]G-NH2; linker 2-9-16 via TBMB; N-terminus assumed), which “MIC of Ala scan of P8-D against M. luteus” value (“MIC of Ala scan of P8-D” below) (M. luteus (NCTC2665); broth microdilution) is on record?
Answer: Its value is 64 to 128 µg/mL.

Question: Which “MIC of Ala scan of P8-D” value (M. luteus (NCTC2665); broth microdilution) does the source give for `CC(C)C[C@H]1NC(=O)[C@@H](CC(C)C)NC(=O)[C@H](NC(=O)[C@@H](C)N)CSCc2cc3cc(c2)CSC[C@@H](NC(=O)[C@@H](CC(C)C)NC(=O)[C@@H](CC(C)C)NC(=O)[C@@H](CO)NC(=O)[C@@H](C)NC1=O)C(=O)N1CCC[C@@H]1C(=O)N[C@H](Cc1ccc(O)cc1)C(=O)N[C@H](CO)C(=O)N[C@H]([C@H](C)O)C(=O)N[C@H](Cc1c[nH]cn1)C(=O)N[C@H](CCCNC(=N)N)C(=O)N[C@@H](C(=O)NCC(N)=O)CSC3` [Peptide P8-D-Q5A] (H-[dA][dC][dL][dL][dA][dS][dL][dL][dC][dP][dY][dS][dT][dH][dR][dC]G-NH2; linker 2-9-16 via TBMB; N-terminus assumed) here?
Answer: Its value is > 512 µg/mL.

Question: With `CC(C)C[C@H]1NC(=O)[C@H](NC(=O)[C@@H](C)N)CSCc2cc3cc(c2)CSC[C@@H](NC(=O)[C@@H](CC(C)C)NC(=O)[C@@H](CC(C)C)NC(=O)[C@@H](CO)NC(=O)[C@@H](CCC(N)=O)NC(=O)[C@@H](CC(C)C)NC1=O)C(=O)N1CCC[C@@H]1C(=O)N[C@H](Cc1ccc(O)cc1)C(=O)N[C@H](CO)C(=O)N[C@H]([C@H](C)O)C(=O)N[C@H](Cc1c[nH]cn1)C(=O)N[C@H](C)C(=O)N[C@@H](C(=O)NCC(N)=O)CSC3` [Peptide P8-D-R15A] (H-[dA][dC][dL][dL][dQ][dS][dL][dL][dC][dP][dY][dS][dT][dH][dA][dC]G-NH2; linker 2-9-16 via TBMB; N-terminus assumed) as the compound, how does the “MIC of Ala scan of P8-D” value (M. luteus (NCTC2665); broth microdilution) read?
Answer: Its value is 128 to 256 µg/mL.

Question: `CC(C)C[C@H]1NC(=O)[C@H](NC(=O)[C@@H](C)N)CSCc2cc3cc(c2)CSC[C@@H](NC(=O)[C@@H](CC(C)C)NC(=O)[C@@H](CC(C)C)NC(=O)[C@@H](CO)NC(=O)[C@@H](CCC(N)=O)NC(=O)[C@@H](CC(C)C)NC1=O)C(=O)N1CCC[C@@H]1C(=O)N[C@H](Cc1ccc(O)cc1)C(=O)N[C@H](CO)C(=O)N[C@H](C)C(=O)N[C@H](Cc1c[nH]cn1)C(=O)N[C@H](CCCNC(=N)N)C(=O)N[C@@H](C(=O)NCC(N)=O)CSC3` [Peptide P8-D-T13A] (H-[dA][dC][dL][dL][dQ][dS][dL][dL][dC][dP][dY][dS][dA][dH][dR][dC]G-NH2; linker 2-9-16 via TBMB; N-terminus assumed) was tested. Which “MIC of Ala scan of P8-D” value (M. luteus (NCTC2665); broth microdilution) did it give?
Answer: Its value is 512 µg/mL.

Question: For `CC(C)C[C@H]1NC(=O)[C@@H](C)NC(=O)[C@H](NC(=O)[C@@H](C)N)CSCc2cc3cc(c2)CSC[C@@H](NC(=O)[C@@H](CC(C)C)NC(=O)[C@@H](CC(C)C)NC(=O)[C@@H](CO)NC(=O)[C@@H](CCC(N)=O)NC1=O)C(=O)N1CCC[C@@H]1C(=O)N[C@H](Cc1ccc(O)cc1)C(=O)N[C@H](CO)C(=O)N[C@H]([C@H](C)O)C(=O)N[C@H](Cc1c[nH]cn1)C(=O)N[C@H](CCCNC(=N)N)C(=O)N[C@@H](C(=O)NCC(N)=O)CSC3` [Peptide P8-D-L3A] (H-[dA][dC][dA][dL][dQ][dS][dL][dL][dC][dP][dY][dS][dT][dH][dR][dC]G-NH2; linker 2-9-16 via TBMB; N-terminus assumed), which “MIC of Ala scan of P8-D” value (M. luteus (NCTC2665); broth microdilution) is on record?
Answer: Its value is > 512 µg/mL.

Question: Which “MIC B. subtilis” value (B. subtilis (168)) does the source give for `CCCCCCCCCCNC(=O)CNC(=O)[C@@H]1CSCc2cc3cc(c2)CSC[C@H](NC(=O)[C@H](CC(N)=O)NC(=O)[C@H](Cc2ccccc2)NC(=O)[C@H](CCCCN)NC(=O)[C@H](CCC(N)=O)NC(=O)[C@@H]2CCCN2C(=O)[C@H](CCCNC(=N)N)NC(=O)[C@@H](NC(=O)[C@H](C)N)CSC3)C(=O)N[C@@H]([C@@H](C)CC)C(=O)N[C@@H](CO)C(=O)N[C@@H](C)C(=O)N[C@@H](CC(N)=O)C(=O)N[C@@H]([C@@H](C)CC)C(=O)N[C@@H](CCCNC(=N)N)C(=O)N1` [Peptide P4-C10] (H-ACRPQKFNCISANIRCG-NHDecyl; linker 2-9-16 via TBMB; N-terminus assumed) here?
Answer: The value was 8 to 16 µg/mL.

Question: And the “MIC M. luteus” value (M. luteus (NCTC2665); [2])?
Answer: Its value is 8 µg/mL (≈ 3.75 µM).
